The record followed here is PubChem BioAssay (NCI).

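Results reflect a 48-hour exposure of cells in 96-well plates to compound at five concentrations. GI50: concentration for 50% inhibition of growth. TGI: concentration producing complete growth inhibition.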

Test systems include OVCAR-4 ovarian; CCRF-CEM leukemia; HT29 colon; OVCAR-5 ovarian; MOLT-4 leukemia; HCC-2998 colon; SK-MEL-2 melanoma; HOP-92 NSCLC; DLD-1 colon; SNB-78 CNS.
Common to all, as to assay: NCI anticancer screen, dose series, 48 h

Turning to `CN(C)CCCNC(=O)c1cc2c3ccccc3[nH]c2c2ncccc12`, the GI50 in the test with OVCAR-4 ovarian was 21 µM; with CCRF-CEM leukemia it was 4.31 µM; in the test with HT29 colon it was 10.3 µM; with OVCAR-5 ovarian, 20.3 µM; in the test with MOLT-4 leukemia, 8.78 µM; in the test with HCC-2998 colon, 10.8 µM. The GI50 was 13.8 µM in the test on SK-MEL-2 melanoma and 14.2 µM in the test with HOP-92 NSCLC. Moreover, the TGI with OVCAR-4 ovarian is 81.4 µM; in the test on CCRF-CEM leukemia it was 56.4 µM; in the test with HT29 colon, 50.4 µM; in the test with OVCAR-5 ovarian, above 100 µM; with MOLT-4 leukemia, above 100 µM; with HCC-2998 colon it was 23.4 µM. Moreover, the results for the TGI in the test on SK-MEL-2 melanoma and in the test with HOP-92 NSCLC were 31.7 µM and 57.3 µM, respectively.
Turning to `C[C@@H]1CN(Cc2ccc(/C=C/c3n[nH]c4ccc5nc(-c6cn[nH]c6C(F)(F)F)c6c(c5c34)CCCC6)cc2)C[C@H](C)O1`, the GI50 was 5.03 µM with OVCAR-4 ovarian; 0.718 µM in the test with CCRF-CEM leukemia; 2.77 µM in the test with HT29 colon; 4.06 µM with OVCAR-5 ovarian; 2.6 µM in the test on MOLT-4 leukemia; 2.57 µM with HCC-2998 colon. The GI50 in the test on SK-MEL-2 melanoma is 13.5 µM; in the test on HOP-92 NSCLC, 3.12 µM. Moreover, the TGI in the test on OVCAR-4 ovarian turned out to be 24.9 µM; in the test with CCRF-CEM leukemia, 34.2 µM; in the test on HT29 colon, 7.82 µM; in the test on OVCAR-5 ovarian, 16.2 µM; in the test with MOLT-4 leukemia it was 23.2 µM; in the test with HCC-2998 colon, 10.5 µM. The TGI with SK-MEL-2 melanoma is 33.8 µM; in the test with HOP-92 NSCLC, 17.9 µM.
With `c1ccc(-c2n(Cc3ccc4ccccc4n3)c3ccccc3[n+]2Cc2ccc3ccccc3n2)cc1`, the GI50 with OVCAR-4 ovarian is 0.238 µM; in the test with CCRF-CEM leukemia, 0.365 µM; with HT29 colon, 0.221 µM; with OVCAR-5 ovarian it was 0.376 µM; in the test on MOLT-4 leukemia, 0.443 µM; in the test on HCC-2998 colon it was 0.319 µM. Further, the GI50 with SK-MEL-2 melanoma is 0.298 µM; in the test with HOP-92 NSCLC, 0.143 µM. For the same compound, the TGI in the test on OVCAR-4 ovarian is 1.82 µM; in the test with CCRF-CEM leukemia it was 2.81 µM; in the test on HT29 colon, 1.23 µM; in the test on OVCAR-5 ovarian it was 2 µM; with MOLT-4 leukemia, 2.09 µM; with HCC-2998 colon it was 1.37 µM. In addition, the TGI was determined as 1.11 µM in the test with SK-MEL-2 melanoma and 0.563 µM with HOP-92 NSCLC.
`COc1ccc2oc(-c3ccncc3)cc(=O)c2c1`: the TGI in the test with OVCAR-4 ovarian, in the test on DLD-1 colon, in the test on CCRF-CEM leukemia, in the test on HT29 colon, in the test with OVCAR-5 ovarian and in the test on MOLT-4 leukemia was above 100 µM in each case. For the same compound, the TGI with HCC-2998 colon, with SK-MEL-2 melanoma and in the test on HOP-92 NSCLC was above 100 µM each time.
Take `Clc1ccccc1-c1nc2ccccc2[nH]1`: the GI50 in the test with OVCAR-4 ovarian, in the test on CCRF-CEM leukemia, in the test on HT29 colon, with OVCAR-5 ovarian, in the test with MOLT-4 leukemia and in the test on HCC-2998 colon was above 100 µM each time. In addition, the results for the GI50 in the test on SK-MEL-2 melanoma and in the test on HOP-92 NSCLC were above 100 µM and 42.1 µM, respectively. The TGI in the test with OVCAR-4 ovarian, in the test on CCRF-CEM leukemia, with HT29 colon, in the test on OVCAR-5 ovarian, in the test on MOLT-4 leukemia and in the test on HCC-2998 colon was above 100 µM throughout. Also, the TGI in the test on SK-MEL-2 melanoma and in the test with HOP-92 NSCLC was above 100 µM in each case.
In the case of `COc1ccc(CNc2nc3ccccc3nc2-c2cccs2)cc1OC`, the TGI in the test on SNB-78 CNS, in the test with CCRF-CEM leukemia, with HT29 colon, in the test with OVCAR-5 ovarian, with MOLT-4 leukemia and with HCC-2998 colon was above 100 µM throughout. Besides, the TGI was above 100 µM with SK-MEL-2 melanoma and 51.3 µM in the test on HOP-92 NSCLC.
In the case of `CC(=O)OCCC/C(=C\c1ccc2ccccc2c1)[N+](=O)[O-]`, the GI50 with OVCAR-4 ovarian was 1.76 µM; in the test on CCRF-CEM leukemia, 2.19 µM; in the test on HT29 colon, 2.3 µM; in the test with OVCAR-5 ovarian, 1.75 µM; in the test with MOLT-4 leukemia, 4.87 µM; in the test with HCC-2998 colon it was 1.73 µM. For the same compound, the GI50 in the test on SK-MEL-2 melanoma was 1.71 µM; in the test on HOP-92 NSCLC, 1.44 µM. Further, the TGI in the test on OVCAR-4 ovarian is 3.39 µM; in the test with CCRF-CEM leukemia, 7.88 µM; in the test on HT29 colon it was 5.59 µM; in the test with OVCAR-5 ovarian it was 3.42 µM; in the test with MOLT-4 leukemia, above 100 µM; with HCC-2998 colon it was 3.32 µM. The TGI came to 3.62 µM in the test on SK-MEL-2 melanoma and 3.17 µM with HOP-92 NSCLC.
As for `O=C1OCC2=C1C(c1cccc(F)c1)c1cc3c(cc1N2CCO)OCCO3` (stereo not given), the GI50 was 1.97 µM in the test on OVCAR-4 ovarian; 0.237 µM with CCRF-CEM leukemia; 0.178 µM with HT29 colon; 0.541 µM in the test on OVCAR-5 ovarian; 0.301 µM in the test with MOLT-4 leukemia; 0.768 µM in the test with HCC-2998 colon. Moreover, the GI50 in the test with SK-MEL-2 melanoma was 0.276 µM; in the test with HOP-92 NSCLC, 2.07 µM. In addition, the TGI with OVCAR-4 ovarian, in the test with CCRF-CEM leukemia, with HT29 colon, in the test on OVCAR-5 ovarian, in the test on MOLT-4 leukemia and with HCC-2998 colon was above 50 µM throughout. Also, the TGI in the test on SK-MEL-2 melanoma and in the test with HOP-92 NSCLC was above 50 µM in each case.
As for `CC(=O)NNC(=O)c1nn(-c2ccc(Cl)cc2)cc1OC(C)=O`, the GI50 was 79.6 µM in the test with OVCAR-4 ovarian; 10.2 µM with CCRF-CEM leukemia; 42.4 µM in the test with HT29 colon; above 83.5 µM in the test with OVCAR-5 ovarian; above 21 µM in the test on MOLT-4 leukemia; 21.4 µM with HCC-2998 colon. Moreover, the figures for the GI50 with SK-MEL-2 melanoma and with HOP-92 NSCLC were above 64.7 µM and 38.7 µM, respectively. Moreover, the TGI in the test on OVCAR-4 ovarian is above 100 µM; in the test with CCRF-CEM leukemia, above 100 µM; in the test on HT29 colon it was above 93.4 µM; in the test on OVCAR-5 ovarian, above 100 µM; in the test with MOLT-4 leukemia, above 100 µM; with HCC-2998 colon it was above 100 µM. For the same compound, the TGI with SK-MEL-2 melanoma and in the test with HOP-92 NSCLC was above 100 µM each time.
`COc1cc2c(cc1OCCCCC(=O)Nc1ccc(-c3nc4ccccc4s3)cc1)N=C[C@@H]1CCCN1C2=O`: the GI50 is 2.82 µM in the test with OVCAR-4 ovarian; 1.2 µM in the test with CCRF-CEM leukemia; 2.16 µM with HT29 colon; 3.56 µM in the test with OVCAR-5 ovarian; 1.63 µM in the test on MOLT-4 leukemia; 1.58 µM with HCC-2998 colon. Besides, the GI50 in the test on SK-MEL-2 melanoma was 1.95 µM; with HOP-92 NSCLC, 1.72 µM. In addition, the TGI in the test on OVCAR-4 ovarian stood at 27.9 µM; in the test on CCRF-CEM leukemia it was 3.62 µM; in the test with HT29 colon it was 7.75 µM; in the test with OVCAR-5 ovarian it was 11.9 µM; in the test on MOLT-4 leukemia, 5.52 µM; in the test with HCC-2998 colon, 3.23 µM. Also, the TGI with SK-MEL-2 melanoma came out at 4.22 µM; in the test with HOP-92 NSCLC, 4.63 µM.
